From US12600714B2, “Substituted pyrazinecarboxamide compounds for treating diseases related to EGFR mutation” (WIGEN BIOMEDICINE TECHNOLOGY (SHANGHAI) CO., LTD., priority 2020, dated 2026)

Assays:
EGFR (del19/T790M/C797S) = assay: HTRF inhibitory activity assay against EGFR (del19/T790M/C797S) enzyme; format: biochemical
Procedure, shortened: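 Wild-type or mutant EGFR preincubated with serially diluted compound 10 min at 28 °C, then reacted 40 min at room temperature with biotinylated TK substrate and ATP. Phosphorylation detected by HTRF (Eu-cryptate anti-TK antibody, streptavidin-XL665, 60 min), 665/615 nm ratio; % inhibition and IC50 vs control.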

EGFR (L858R/T790M/C797S) = EGFR (L858R/T790M/C797S) (Homo sapiens, UniProt P00533, C797S/L858R/T790M); assay: HTRF inhibitory activity assay against EGFR (L858R/T790M/C797S) enzyme; format: biochemical; settings: read-out: EGFR (L858R/T790M/C797S) inhibition (%) (0.3 nM compound)
Description: (§1) Inhibitory Activity Assay of the Compounds Disclosed Herein Against EGFR (del19/T790M/C797S), EGFR (L858R/T790M/C797S) or EGFR (WT) Enzymes
(§2) The inhibitory effects of the compounds against EGFR (del19/T790M/C797S), EGFR (L858R/T790M/C797S) or EGFR (WT) enzyme activity was determined by using HTRF. The procedures are as follows:
(§3) The WT or mutant EGFR proteins were incubated with a serially diluted compounds at 28° C. for 10 min followed by addition of biotin-labeled general tyrosine kinase (TK) substrate and ATP. The mixture was incubated at room temperature for 40 min for reaction. After the termination of the reaction, an Eu3+-Cryptate-labeled antibody against TK and streptavidin-XL665 were added and the mixture was incubated at room temperature for 60 min. The luminescences at 615 nm and 665 nm were detected and the ratio of 665/615 was calculated to quantify the level of TK substrate phosphorylation. Inhibition % and IC50 of the compounds were calculated relative to the control group.

EGFR (WT) = EGFR (WT) (Homo sapiens, UniProt P00533); assay: HTRF inhibitory activity assay against EGFR (WT) enzyme; format: biochemical
Description: as §1, §2, §3

[1] = molecular target: Ba/F3 (EGFR^del19/T790M/C797S) triple-mutant cells (Homo sapiens, UniProt P00533, T790M/C797S, cells depend on it, form not given); assay: Antiproliferative activity against Ba/F3 (EGFR del19/T790M/C797S) triple-mutant cells, Cell Titer Glow; format: cell-based; settings: three days after addition of compounds; read-out: Antiproliferative activity BaF3(EGFR^del19/T790M/C797S) IC50
Procedure, shortened: (§4)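 Cells seeded (3000 Ba/F3 del19/T790M/C797S or 2000 A431 per well), compounds added after one day, serially diluted up to 500 nM for Ba/F3 and up to 10 μM for A431. Growth read by Cell Titer Glow after 3 days; IC50 from % growth inhibition.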

A431 (EGFR WT) cells = assay: Antiproliferative activity against A431 (EGFR WT) cells, Cell Titer Glow; format: cell-based; settings: Homo sapiens, A-431, 72 h; three days after addition of compounds; read-out: Antiproliferative activity A431 wild-type (WT) IC50
Procedure, shortened: as §4

[2] = system: H1975 cells carrying EGFR T790M mutation; assay: In vivo pharmacodynamic study, mouse H1975 subcutaneous xenograft tumor model; design: species or system BALB/c nude mice; settings: intragastric once daily, day 28, H1975 xenograft
Description: In Vivo Pharmacodynamic Study—Mouse H1975 Subcutaneous Xenograft Tumor Model
(§5) BALB/c nude mice were grafted subcutaneously on the left dorsum with 5×10^6 H1975 cells carrying EGFR T790M mutation. After the tumor grew to 100-150 mm^3, the mice were randomly divided into the following groups for intragastric administration once daily: group 1: vehicle control; group 2: compound 511 (60 mg/kg); and group 3: compound 511 (80 mg/kg). The tumor volume was measured twice weekly and at the end of treatment. Tumor growth inhibition of the compound was calculated according to the following equation: tumor growth inhibition (TGI)=1−(tumor volume on day 28 in treatment group−tumor volume on day 1 in treatment group)/(tumor volume on day 28 in vehicle control group−tumor volume on day 1 in treatment group).

[3] = system: PC9 cells with EGFR Del19/T790M/C797S overexpression; assay: In vivo pharmacodynamic study, mouse PC9 (EGFR Del19/T790M/C797S) subcutaneous xenograft tumor model; design: species or system BALB/c nude mice; settings: intragastric once daily, day 28, PC9 (EGFR Del19/T790M/C797S) xenograft
Description: In Vivo Pharmacodynamic Study—Mouse PC9(EGFR Del19/T790M/C797S) Subcutaneous Xenograft Tumor Model
as §5, with “PC9” for “H1975”, “with” for “carrying”, “Del19/T790M/C797S overexpression.” for “T790M mutation.”

EGFR (L858R/T790M/C797S), sequence (P00533 25-1210 T790M/C797S/L858R): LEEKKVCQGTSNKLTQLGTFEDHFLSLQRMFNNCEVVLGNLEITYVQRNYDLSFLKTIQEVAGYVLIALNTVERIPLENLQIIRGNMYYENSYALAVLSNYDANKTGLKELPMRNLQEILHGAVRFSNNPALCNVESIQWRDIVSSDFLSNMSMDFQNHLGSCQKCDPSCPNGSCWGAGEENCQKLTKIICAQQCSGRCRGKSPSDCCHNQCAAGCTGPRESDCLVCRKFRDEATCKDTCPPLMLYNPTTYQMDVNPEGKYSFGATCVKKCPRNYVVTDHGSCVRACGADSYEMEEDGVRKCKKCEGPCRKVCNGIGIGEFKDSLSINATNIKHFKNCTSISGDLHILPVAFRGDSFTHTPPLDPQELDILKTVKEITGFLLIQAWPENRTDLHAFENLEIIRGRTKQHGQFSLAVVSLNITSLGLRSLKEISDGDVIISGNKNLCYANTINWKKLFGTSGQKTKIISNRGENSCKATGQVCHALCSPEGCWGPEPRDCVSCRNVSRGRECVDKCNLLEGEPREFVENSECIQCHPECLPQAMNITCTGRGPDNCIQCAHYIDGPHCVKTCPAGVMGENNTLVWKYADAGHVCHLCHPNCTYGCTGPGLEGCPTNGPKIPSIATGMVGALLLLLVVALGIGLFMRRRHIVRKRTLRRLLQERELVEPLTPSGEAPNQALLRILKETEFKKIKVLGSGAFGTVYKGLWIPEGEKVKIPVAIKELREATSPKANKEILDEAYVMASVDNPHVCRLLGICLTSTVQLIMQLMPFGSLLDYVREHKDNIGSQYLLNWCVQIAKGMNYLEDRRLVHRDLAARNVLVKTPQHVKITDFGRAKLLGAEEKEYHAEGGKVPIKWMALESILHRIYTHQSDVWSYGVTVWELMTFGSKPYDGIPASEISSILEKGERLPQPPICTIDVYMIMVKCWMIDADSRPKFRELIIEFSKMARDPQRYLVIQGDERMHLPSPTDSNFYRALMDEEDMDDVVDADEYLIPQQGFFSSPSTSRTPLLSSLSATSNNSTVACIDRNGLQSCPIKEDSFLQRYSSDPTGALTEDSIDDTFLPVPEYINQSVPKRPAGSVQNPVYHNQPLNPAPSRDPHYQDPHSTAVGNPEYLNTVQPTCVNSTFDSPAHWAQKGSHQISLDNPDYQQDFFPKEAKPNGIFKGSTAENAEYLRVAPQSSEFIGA
EGFR (WT), sequence (P00533 25-1210): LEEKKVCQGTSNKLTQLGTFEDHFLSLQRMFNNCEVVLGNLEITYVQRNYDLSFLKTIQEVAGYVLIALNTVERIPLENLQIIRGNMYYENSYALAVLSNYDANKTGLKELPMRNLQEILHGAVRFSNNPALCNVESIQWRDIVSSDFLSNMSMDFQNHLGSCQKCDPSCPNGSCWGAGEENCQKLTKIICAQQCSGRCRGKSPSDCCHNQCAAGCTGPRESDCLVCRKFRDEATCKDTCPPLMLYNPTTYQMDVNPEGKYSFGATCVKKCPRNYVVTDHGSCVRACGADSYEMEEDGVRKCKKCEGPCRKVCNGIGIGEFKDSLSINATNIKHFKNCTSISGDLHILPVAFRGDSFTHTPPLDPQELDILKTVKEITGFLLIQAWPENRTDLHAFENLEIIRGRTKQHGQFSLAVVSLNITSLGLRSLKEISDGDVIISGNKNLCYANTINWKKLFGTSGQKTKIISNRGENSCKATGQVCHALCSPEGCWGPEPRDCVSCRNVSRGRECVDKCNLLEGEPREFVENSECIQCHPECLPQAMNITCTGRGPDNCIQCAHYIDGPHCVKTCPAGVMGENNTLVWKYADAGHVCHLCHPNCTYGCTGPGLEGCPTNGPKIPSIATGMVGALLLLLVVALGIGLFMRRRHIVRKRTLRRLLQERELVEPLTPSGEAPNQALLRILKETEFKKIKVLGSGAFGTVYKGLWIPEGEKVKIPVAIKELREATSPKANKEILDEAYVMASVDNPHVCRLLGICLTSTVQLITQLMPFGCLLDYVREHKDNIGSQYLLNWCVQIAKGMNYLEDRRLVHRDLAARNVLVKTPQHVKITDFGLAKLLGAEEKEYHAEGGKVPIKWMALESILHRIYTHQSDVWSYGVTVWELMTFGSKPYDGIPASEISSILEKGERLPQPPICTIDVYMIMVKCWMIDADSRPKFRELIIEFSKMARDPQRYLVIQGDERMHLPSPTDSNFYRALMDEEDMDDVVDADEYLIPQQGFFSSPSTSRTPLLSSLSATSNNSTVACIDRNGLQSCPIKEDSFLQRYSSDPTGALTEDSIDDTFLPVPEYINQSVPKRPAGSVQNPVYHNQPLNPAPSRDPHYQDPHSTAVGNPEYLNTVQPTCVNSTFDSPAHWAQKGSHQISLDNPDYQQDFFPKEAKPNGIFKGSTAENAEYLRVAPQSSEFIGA
Ba/F3 (EGFR^del19/T790M/C797S) triple-mutant cells, sequence (P00533 with tags, fused parts or gaps DEL746-750/T790M/C797S, form open): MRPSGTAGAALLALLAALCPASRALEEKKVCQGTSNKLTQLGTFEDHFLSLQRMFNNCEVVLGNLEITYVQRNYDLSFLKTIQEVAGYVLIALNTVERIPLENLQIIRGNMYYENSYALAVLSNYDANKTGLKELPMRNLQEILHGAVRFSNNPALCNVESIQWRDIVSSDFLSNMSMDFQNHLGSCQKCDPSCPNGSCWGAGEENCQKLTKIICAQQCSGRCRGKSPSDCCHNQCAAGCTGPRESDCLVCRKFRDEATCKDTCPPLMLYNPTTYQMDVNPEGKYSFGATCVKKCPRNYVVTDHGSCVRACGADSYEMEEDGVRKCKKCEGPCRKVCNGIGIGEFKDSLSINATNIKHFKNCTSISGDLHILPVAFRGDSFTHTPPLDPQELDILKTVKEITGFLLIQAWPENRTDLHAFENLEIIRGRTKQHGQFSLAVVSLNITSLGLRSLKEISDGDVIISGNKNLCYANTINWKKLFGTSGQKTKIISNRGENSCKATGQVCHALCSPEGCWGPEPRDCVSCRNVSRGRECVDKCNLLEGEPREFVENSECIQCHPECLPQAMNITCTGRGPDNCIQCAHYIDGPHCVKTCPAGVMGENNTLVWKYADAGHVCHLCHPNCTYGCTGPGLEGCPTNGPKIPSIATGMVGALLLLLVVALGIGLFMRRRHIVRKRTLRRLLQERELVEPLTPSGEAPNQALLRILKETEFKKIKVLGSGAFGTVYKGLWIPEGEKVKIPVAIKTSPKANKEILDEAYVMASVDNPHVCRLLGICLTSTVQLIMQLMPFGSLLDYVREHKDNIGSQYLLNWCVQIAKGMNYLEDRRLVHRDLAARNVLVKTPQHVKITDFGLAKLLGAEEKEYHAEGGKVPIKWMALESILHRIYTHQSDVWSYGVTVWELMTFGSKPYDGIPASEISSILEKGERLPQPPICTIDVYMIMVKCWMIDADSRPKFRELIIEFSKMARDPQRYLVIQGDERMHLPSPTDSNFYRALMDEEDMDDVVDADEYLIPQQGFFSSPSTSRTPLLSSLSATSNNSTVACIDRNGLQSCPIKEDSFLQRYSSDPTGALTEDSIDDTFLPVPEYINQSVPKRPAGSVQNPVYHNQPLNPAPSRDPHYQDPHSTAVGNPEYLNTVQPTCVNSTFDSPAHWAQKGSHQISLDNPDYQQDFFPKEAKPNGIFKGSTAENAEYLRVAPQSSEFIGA

Row | inhibition at 0.0003 µM (EGFR (L858R/T790M/C797S)) [%] | IC50 (EGFR (WT)) [nM] | GI50 [1] [nM] | IC50 (A431 (EGFR WT) cells) [nM] | Structure (SMILES) | EGFR (del19/T790M/C797S) inhibition (%) (0.3 nM compound) (EGFR (del19/T790M/C797S)) | TGI (tumor growth inhibition) ([2]; 60 mg/kg) [%] | TGI (tumor growth inhibition) ([2]; 80 mg/kg) [%] | TGI (tumor growth inhibition) ([3]; 60 mg/kg) [%] | TGI (tumor growth inhibition) ([3]; 80 mg/kg) [%]
1 | ≤ 20 | > 300 | 236 | 2500 | CN1CCN(C2CCN(c3ccc(Nc4nc(NC5CCOCC5)c(-c5ccccc5)nc4C(N)=O)cc3)CC2)CC1 [compound 1] | + (+ indicates an inhibition less than or equal to 20%) | – | – | – | –
2 | ≤ 20 | 10.2 | 61 | 660 | CCc1cc(Nc2nc(NC3CC4(COC4)C3)c(-c3cc[nH]n3)nc2C(N)=O)ccc1N1CCC(N2CCN(C)CC2)CC1 [compound 503] | +++ (+++ indicates an inhibition greater than 50%.) | – | – | – | –
3 | > 50 | 0.22 | 2 | 30 | CN1CCN(C2CCN(c3ccc(Nc4nc(NC5CC5)c(-c5cccc6[nH]ccc56)nc4C(N)=O)cc3)CC2)CC1 [compound 522] | +++ (+++ indicates an inhibition greater than 50%.) | – | – | – | –
4 | > 50 | 0.27 | 4 | 50 | CC(C)Nc1nc(Nc2ccc(N3CCC(N4CCN(C)CC4)CC3)cc2)c(C(N)=O)nc1-c1cccc2[nH]ccc12 [compound 521] | +++ (+++ indicates an inhibition greater than 50%.) | – | – | – | –
5 | > 50 | 2.82 | 9 | 60 | CN1CCN(C2CCN(c3ccc(Nc4nc(NC5CCOCC5)c(-c5cccc6[nH]ccc56)nc4C(N)=O)cc3)CC2)CC1 [compound 511, 6-(1H-indol-4-yl)-3-((4-(4-(4-methylpiperazin-1-yl)piperidin-1-yl)phenyl)amino)-5-((tetrahydro-2H-pyran-4-yl)amino)pyrazine-2-carboxamide] | +++ (+++ indicates an inhibition greater than 50%.) | 99 | 104 | 87.41 | 93.17
6 | – | > 300 | 113 | 950 | CC(C)Oc1nc(Nc2ccc(N3CCC(N4CCN(C)CC4)CC3)cc2)c(C(N)=O)nc1-c1ccccc1 [compound 14] | + (+ indicates an inhibition less than or equal to 20%) | – | – | – | –
7 | > 50 | 0.33 | 5 | 100 | CN1CCN(C2CCN(c3ccc(Nc4nc(N[C@H]5CC[C@H](O)CC5)c(-c5cccc6[nH]ccc56)nc4C(N)=O)cc3)CC2)CC1 [compound 526] | +++ (+++ indicates an inhibition greater than 50%.) | – | – | – | –
8 | ≤ 20 | > 300 | 16 | 70 | CN1CCN(C2CCN(c3ccc(Nc4nc(NC5CCOCC5)c(-c5cc[nH]n5)nc4C(N)=O)cc3)CC2)CC1 [compound 55, 3-((4-(4-(4-methylpiperazin-1-yl)piperidin-1-yl)phenyl)amino)-6-(1H-pyrazol-3-yl)-5-((tetrahydro-2H-pyran-4-yl)amino)pyrazine-2-carboxamide] | +++ (+++ indicates an inhibition greater than 50%.) | – | – | – | –

Continued, molecule first:

Row | Structure (SMILES) | inhibition at 0.0003 µM (EGFR (L858R/T790M/C797S)) [%] | IC50 (EGFR (WT)) [nM] | GI50 [1] [nM] | IC50 (A431 (EGFR WT) cells) [nM] | EGFR (del19/T790M/C797S) inhibition (%) (0.3 nM compound) (EGFR (del19/T790M/C797S)) | TGI (tumor growth inhibition) ([2]; 60 mg/kg) [%] | TGI (tumor growth inhibition) ([2]; 80 mg/kg) [%] | TGI (tumor growth inhibition) ([3]; 60 mg/kg) [%] | TGI (tumor growth inhibition) ([3]; 80 mg/kg) [%]
9 | CN1CCN(C2CCN(c3ccc(Nc4nc(NC5CCOCC5)c(-c5ccncc5)nc4C(N)=O)cc3)CC2)CC1 [compound 39, 3-((4-(4-(4-methylpiperazin-1-yl)piperidin-1-yl)phenyl)amino)-6-(pyridin-4-yl)-5-((tetrahydro-2H-pyran-4-yl)amino)pyrazine-2-carboxamide] | > 50 | > 300 | 29 | 340 | +++ (+++ indicates an inhibition greater than 50%.) | – | – | – | –
10 | CN1CCN(C2CCN(c3ccc(Nc4nc(Nc5ccccc5)c(-c5ccccc5)nc4C(N)=O)cc3)CC2)CC1 [compound 5] | ≤ 20 | > 100 | – | – | + (+ indicates an inhibition less than or equal to 20%) | – | – | – | –
11 | CN1CCN(C2CCN(c3ccc(Nc4nc(NC5CCOCC5)c(-c5cn[nH]c5)nc4C(N)=O)cc3)CC2)CC1 [compound 57] | 20 to 50 | > 300 | 79 | 320 | ++ (++ indicates an inhibition from 20% to 50%) | – | – | – | –
12 | CN1CCC(Oc2nc(Nc3ccc(N4CCC(N5CCN(C)CC5)CC4)cc3)c(C(N)=O)nc2-c2ccccc2)CC1 [compound 4] | ≤ 20 | > 100 | 295 | 1700 | + (+ indicates an inhibition less than or equal to 20%) | – | – | – | –
13 | CC(C)Nc1nc(Nc2ccc(N3CCC(N4CCN(C)CC4)CC3)cc2)c(C(N)=O)nc1-c1ccccc1 [compound 11] | – | > 300 | 107 | 540 | ++ (++ indicates an inhibition from 20% to 50%) | – | – | – | –
14 | CN1CCN(C2CCN(c3ccc(Nc4nc(NC5CC6(COC6)C5)c(-c5cccc6[nH]ccc56)nc4C(N)=O)cc3)CC2)CC1 [compound 527] | > 50 | 1.7 | 4 | 100 | +++ (+++ indicates an inhibition greater than 50%.) | – | – | – | –
